Common to all, as to type: cell-based
Data set [1] concerns SARS-CoV-2 "NRC-03-nhCoV" virus. As to the kind of experiment: Inhibitory concentration 50 (IC50) determination, reduction of virus-induced cytopathic effect in Vero-E6 cells. The settings on record: Severe acute respiratory syndrome coronavirus 2, Vero C1008, 72 h, against NRC-03-nhCoV in Vero E6, 72 h, CPE reduction, crystal violet; unit not given in Table 4 and Figure 6, Figure 4 and text print μM; read-out: IC50 (half-maximal inhibitory concentration). Here is the method: The IC50 values for the tested compounds were determined as previously described, with minor modifications. Briefly, in 96-well tissue culture plates, 2.4 × 10^4 Vero-E6 cells were distributed in each well and incubated overnight at a humidified 37°C incubator under 5% CO2 condition. The cell monolayers were then washed once with 1× PBS. An aliquot of the SARS-CoV-2 “NRC-03-nhCoV” virus containing 100 TCID50 was incubated with serial diluted compounds and kept at 37 °C for 1 h. The Vero-E6 cells were treated with virus/compound mix and co-incubated at 37 °C in a total volume of 200 µL per well. Untreated cells infected with virus represented the virus control; however, cells that were not treated and not infected were the cell control. Following incubation at 37 °C in 5% CO2 incubator for 72 h, the cells were fixed with 100 μL of 10% paraformaldehyde for 20 min and stained with 0.5% crystal violet in distilled water for 15 min at RT. The crystal violet dye was then dissolved using 100 μL of absolute methanol per well and the optical density of the color was measured at 570 nm using the Anthos Zenyth 200 rt plate reader (Anthos Labtec Instruments, Heerhugowaard, the Netherlands).
A general note: Cytopathic effects are the visible damage that an infection or toxin causes in cultured cells.

In data set [2] the test system is NRC-03-nhCoV (SARS-CoV-2) in Vero-E6 cells. As to the kind of experiment: Mode of antiviral action, plaque infectivity reduction assay (adsorption, replication, virucidal). Here is the method:
To investigate whether the tested compound with high selectivity index and antiviral activity against NRC-03-nhCoV affect (a) viral adsorption, (b) viral replication or (c) viricidal effect, a plaque infectivity reduction assay was performed according to the following protocols: • (a) Viral adsorption mechanism
The viral adsorption mechanism was assayed according to a protocol by Zhang et al. with minor modifications. Vero-E6 cells were cultivated in a 6-well plate (10^5 cells/mL) for 24 h at 37 °C. Each tested drug was applied in 500 µL of medium without supplements and co-incubated with the cells for 2 h at 4 °C. The non-absorbed drug in the applied inocula was removed by washing cells three times with 1x PBS. The NRC-03-nhCoV was diluted to a countable range “10^−4” and co-incubated with the pretreated cells. About 1 h post-incubation, the inocula were removed and 3 mL of agarose overlay (1:1 mixture of warmed 2× plaque media and a stock solution of heated 2% agarose) were added. The plates were kept at room temperature to solidify and then incubated at 37 °C to allow the formation of viral plaques. The plaques were fixed using 10% formaldehyde, stained using crystal violet (1% crystal violet in 20% ethanol and distilled H2O), washed with rinse water and dried to calculate the percentage reduction in plaque formation compared to control wells, which comprised untreated Vero-E6 cells directly infected with NRC-03-nhCoV.
The impact of the tested drug on viral replication was determined as previously described. Vero-E6 cells were cultivated in a 6-well plate (10^5 cell/mL) for 24 h at 37 °C. The NRC-03-nhCoV of the countable range was inoculated directly to the cells and incubated for 1 h at 37 °C. The inocula containing the non-adsorbed virus were removed by washing infected cell monolayers three times with 1× PBS. The analyzed compound was then applied in varying concentrations to infected cells for another 1 h contact time at 37 °C. After removing the inocula containing the tested drug, agarose overlay were added to the cells. […]

Data set [3] is described as follows: Cytotoxicity (CC50) determination, crystal violet assay. The settings on record: African green monkey, Vero E6 cells, Table 4 prints no unit, Figure 4 prints μM, read-out: CC50 (half-maximal cytotoxic concentration). Here is the method:
To assess the half maximal cytotoxic concentration (CC50), stock solutions of the test compounds were prepared in 10% DMSO in ddH2O and diluted further to the working solutions with DMEM. The cytotoxic activity of the extracts was tested in VERO-E6 cells by using crystal violet assay as previously described with minor modifications. Briefly, the cells were seeded in 96-well plates (100 µL/well at a density of 3 × 10^5 cells/mL) and incubated for 24 h at 37 °C in a humidified 5% CO2 incubator. After 24 h, cells were treated with various concentrations of the tested compounds in triplicates. Seventy two hours later, the supernatant was discarded, and cell monolayers were fixed with 10% formaldehyde for 1 h at room temperature (RT). The fixed monolayers were then dried and stained with 50 µL of 0.1% crystal violet for 20 min on a bench rocker at RT. The monolayers were then washed, dried and the crystal violet dye in each well was then dissolved with 200 µL of methanol for 20 min on a bench rocker at RT. The absorbance of crystal violet solutions was measured at λmax 570 nm as a reference wavelength using a multi-well plate reader.

Data set [4] concerns MERS-CoV virus "NRCE-HKU270". The data set is described as follows: microbe, parasite or virus in culture. Conditions: Middle East respiratory syndrome-related coronavirus, Vero C1008, read-out: IC50 (half-maximal inhibitory concentration).

The structures appear in SMILES notation. pIC50: −log10 of the molar value.

The values below come from article PMC8159111 (Pathogens, 2021).

As to `CC1(C)CCC2(C(=O)OCc3cc(-c4ccc(Cl)cc4)no3)CCC3(C)C(=CCC4C5(C)CC(O)C(O)C(C)(C)C5CCC43C)C2C1` (stereo not drawn) [Compound 17, (3-(4-chlorophenyl)isoxazol-5-yl) methyl-(2α,3β)-2,3-dihydroxyolean-12-en-28-oate], in data set [1], the IC50 turned out to be 4.12 µM. The “effect on viral adsorption” value in data set [2] (Vero-E6 cells pretreated with compound 2 h at 4 °C) was “efficiently impair viral replication and adsorption”. In addition, the “effect on viral replication” value in data set [2] (compound applied to infected Vero-E6 cells after adsorption) was “efficiently impair viral replication”. Besides, in data set [2] (virus mixed with compound 1 h before infection of Vero-E6), the virucidal effect result was “virucidal effect”. The CC50 at 72 h in data set [3] was found to be 142 µM. Also, the pIC50 in data set [4] was 5.20.
